Columns and labels:
[1] = Stability of calcitriol in Cetiol SN (cetearyl isononanoate), HPLC assay; type: physicochemical; conditions: calcitriol 30 ppm in Cetiol SN with 0.4% BHT
Excerpt: (§1) b) Stability of calcitriol in Cetiol SN (cetearyl isononanoate): Solution of calcitriol 30 ppm in qs 100% of Cetiol SN (cetearyl isononanoate) in the presence of 0.4% of BHT. HPLC assay technique against reference substance. At the starting time (TO) the composition is considered to contain 100% of calcitriol. Concentration of calcitriol measured in % relative to TO: […]

[2] = Stability of calcitriol in Miglyol 812 (caprylic/capric triglycerides), HPLC assay; type: physicochemical; conditions: calcitriol 30 ppm in Miglyol 812 with 0.4% BHT
Excerpt: as §1, with “a)” for “b)”, “Miglyol 812 (caprylic/capric triglycerides):” for “Cetiol SN (cetearyl isononanoate):”, “Miglyol 812” for “Cetiol SN (cetearyl isononanoate)”

Concentration of calcitriol measured in % relative to TO ([1]; +4° C., T 2 weeks): 98.6% | Concentration of calcitriol measured in % relative to TO ([1]; +4° C., T 4 weeks): 98.1% | Concentration of calcitriol measured in % relative to TO ([1]; +40° C., T 2 weeks): 99.0% | Concentration of calcitriol measured in % relative to TO ([1]; +40° C., T 4 weeks): 98.9% | Concentration of calcitriol measured in % relative to TO ([1]; AT, T 2 weeks): 98.7% | Concentration of calcitriol measured in % relative to TO ([1]; AT, T 4 weeks): 98.4% | Concentration of calcitriol measured in % relative to TO ([2]; +4° C., T 2 weeks): 98.3% | Concentration of calcitriol measured in % relative to TO ([2]; +4° C., T 4 weeks): 105.2% | Concentration of calcitriol measured in % relative to TO ([2]; +40° C., T 2 weeks): 91% | Concentration of calcitriol measured in % relative to TO ([2]; +40° C., T 4 weeks): 93.8% | Concentration of calcitriol measured in % relative to TO ([2]; AT, T 2 weeks): 95.1% | Concentration of calcitriol measured in % relative to TO ([2]; AT, T 4 weeks): 98.0%
Structure (SMILES): C=C1/C(=C\C=C2/CCC[C@]3(C)[C@@H]([C@H](C)CCCC(C)(C)O)CC[C@@H]23)C[C@@H](O)C[C@@H]1O [calcitriol]
